From patent US8629158B2, “Azabicycloalkane-indole and azabicycloalkane-pyrrolo-pyridine MCH-1 antagonists, methods of making, and use thereof” (Albany Molecular Research, Inc., priority 2009, dated 2014) come the findings set out here.

Counter-ions that a name gives are not always drawn.

The first experiment deals with human MCH-1 receptor (Homo sapiens (Human), UniProt Q99705). In words: Binding Assay for Human Melanin-Concentrating Hormone (MCH-1) Receptor (radioligand displacement, CHO-K1 membranes). The note with it: @ 1 uM test compound; read-out: MCH-1 percent inhibition of control radioligand specific binding. The method, then: Evaluation of the affinity of compounds for the human MCH-1 receptor was accomplished using 4-(3,4,5-tritritiumbenzyloxy)-1-(1-(2-(pyrrolidin-1-yl)ethyl)-1H-indazol-5-yl)pyridin-2(1H)-one and membranes prepared from stable CHO-K1 cells expressing the human MCH1 receptor obtained from Euroscreen (Batch 1138). Cell membrane homogenates (8.92 μg protein) were incubated for 60 min at 25° C. with […] of the [^3H]-labeled compound in the absence or presence of the test compound in 50 mM Tris-HCl buffer, pH 7.4. Nonspecific binding was determined in the presence of 50 μM 1-(5-(4-cyanophenyl)bicyclo[3.1.0]hexan-2-yl)-3-(4-fluoro-3-(trifluoromethyl)phenyl)-1-(3-(4-methylpiperazin-1-yl)propyl)urea. Following incubation, the samples were filtered rapidly under vacuum through Skatron 11731 filters, pre-soaked in 0.5% polyethylenimine, and washed with ice-cold 50 mM Tris-HCl buffer, pH 7.4, (wash setting 9,9,0) using a Skatron cell harvester. The filters were counted for radioactivity in a liquid scintillation counter (Tri-Carb 2100TR, Packard) using a scintillation cocktail (Ultima Gold MV, Perkin Elmer).
Sequence of human MCH-1 receptor (Q99705 whole entry): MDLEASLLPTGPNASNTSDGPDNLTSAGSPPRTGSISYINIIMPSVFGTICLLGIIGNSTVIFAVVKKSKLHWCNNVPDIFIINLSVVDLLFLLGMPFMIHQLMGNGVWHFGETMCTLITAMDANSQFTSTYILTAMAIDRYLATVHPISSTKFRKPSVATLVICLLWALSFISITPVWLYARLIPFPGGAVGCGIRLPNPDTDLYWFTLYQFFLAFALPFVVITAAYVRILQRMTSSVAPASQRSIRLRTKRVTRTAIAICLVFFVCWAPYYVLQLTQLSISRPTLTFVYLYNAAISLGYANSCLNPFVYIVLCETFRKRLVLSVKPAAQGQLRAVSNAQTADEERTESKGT
The results are expressed as a percent inhibition of the control radioligand specific binding. The IC50 value (concentration causing a half-maximal inhibition of control specific binding) and Hill coefficient (nH) were determined by non-linear regression analysis of the competition curve using Hill equation curve fitting. The inhibition constant (Ki) was calculated from the Cheng Prusoff equation: (Ki=IC50/(1+(L/KD)), where L=concentration of radioligand in the assay, and KD=affinity of the radioligand for the receptor.
For orientation: Loss of bound radioactivity is the signal in a displacement assay; it reports binding, not function.
For orientation: inhibition means the drop in the measured response relative to a control, in per cent. In the case of `Cn1c2c(c3ccc(N4CCN(CCc5ccccc5)CC4=O)cc31)C1CCC(C2)N1` (single isomer, unassigned; enantiomer a) [Example 34, 1-(5-Methyl-5,6,7,8,9,10-hexahydro-7,10-iminocyclohept[b]indol-3-yl)-4-phenethylpiperazin-2-one dihydrochloride (Enantiomer A)], the inhibition at 1 µM was found to be 68%. With `Cn1c2c(c3ccc(-n4ccc(-c5ccc(C(F)(F)F)nc5)cc4=O)cc31)C1CCC(C2)N1` (single isomer, unassigned; enantiomer a) [Example 37, 1-(5-Methyl-5,6,7,8,9,10-hexahydro-7,10-iminocyclohept[b]indol-3-yl)-4-(6-(trifluoromethyl)pyridin-3-yl)pyridin-2(1H)-one hydrochloride (Enantiomer A)], the inhibition at 1 µM came out at 72%.

Still in this experiment, the particulars now being: MCH-1 Ki (nM), membranes from CHO-K1 cells expressing human MCH1 receptor; [3H]-labeled radioligand; Ki from IC50 by Cheng Prusoff.
Broadly, the Ki is a dissociation constant, usually derived from enzyme kinetics or from competition with a known ligand. For the molecule `Cn1c2c(c3ccc(-n4ccc(OCc5ccccc5)cc4=O)cc31)C1CCC(C2)N1` (single isomer, unassigned; enantiomer a) [Example 14, 4-(Benzyloxy)-1-(5-methyl-5,6,7,8,9,10-hexahydro-7,10-iminocyclohept[b]indol-3-yl)pyridin-2(1H)-one hydrochloride (Enantiomer A)], the inhibition constant (Ki) amounted to 15.8 nM. `Cn1c2c(c3ccc(-n4ccc(OCc5ccc(F)cn5)cc4=O)cc31)C1CCC(C2)N1` (single isomer, unassigned; enantiomer a) [Example 25, (+)-4-((5-Fluoropyridin-2-yl)methoxy)-1-(5-methyl-5,6,7,8,9,10-hexahydro-7,10-iminocyclohept[b]indol-3-yl)pyridin-2(1H)-one hydrochloride (Enantiomer A)]: the Ki came to 19 nM. Same read-out and setting: under `CC(=O)N1C2CCC1c1c(n(C)c3cc(-n4ccc(OCc5ccc(F)cn5)cc4=O)ccc13)C2` (single isomer, unassigned; enantiomer a) [Example 29, 1-(11-Acetyl-5-methyl-5,6,7,8,9,10-hexahydro-7,10-iminocyclohept[b]indol-3-yl)-4-((5-Fluoropyridin-2-yl)methoxy)pyridin-2(1H)-one (Enantiomer A)] stands 75 nM.

Regarding `CC(=O)N1C2CCC1c1c([nH]c3cc(-n4ccc(OCc5ccccc5)cc4=O)ccc13)C2` (single isomer, unassigned; enantiomer a) [Example 30, 1-(11-Acetyl-5,6,7,8,9,10-hexahydro-7,10-iminocyclohept[b]indol-3-yl)-4-(benzyloxy)pyridin-2(1H)-one hydrochloride (Enantiomer A)], the Ki is 97 nM.

Take `Cn1c2c(c3ccc(-n4ccc(OCc5ccccc5)cc4=O)cc31)C1CCC(C2)N1` (single isomer, unassigned; enantiomer b) [Example 15, 4-(Benzyloxy)-1-(5-methyl-5,6,7,8,9,10-hexahydro-7,10-iminocyclohept[b]indol-3-yl)pyridin-2(1H)-one hydrochloride (Enantiomer B)]: the Ki amounted to 7.8 nM. The same measure, in the same setting: under `Cn1c2c(c3ccc(-n4ccc(OCc5ccc(F)cn5)cc4=O)cc31)C1CCC(C2)N1` (single isomer, unassigned; enantiomer b) [Example 24, (−)-4-((5-Fluoropyridin-2-yl)methoxy)-1-(5-methyl-5,6,7,8,9,10-hexahydro-7,10-iminocyclohept[b]indol-3-yl)pyridin-2(1H)-one hydrochloride (Enantiomer B)] stands 7.4 nM. Take `Cn1c2c(c3ccc(N4CCN(CCc5ccccc5)CC4=O)cc31)C1CCC(C2)N1` (single isomer, unassigned; enantiomer b) [Example 33, 1-(5-Methyl-5,6,7,8,9,10-hexahydro-7,10-iminocyclohept[b]indol-3-yl)-4-phenethylpiperazin-2-one dihydrochloride (Enantiomer B)]: the Ki is 17 nM. Turning to `Cn1c2c(c3ccc(-n4ccc(-c5ccc(C(F)(F)F)nc5)cc4=O)cc31)C1CCC(C2)N1` (single isomer, unassigned; enantiomer b) [Example 36, 1-(5-Methyl-5,6,7,8,9,10-hexahydro-7,10-iminocyclohept[b]indol-3-yl)-4-(6-(trifluoromethyl)pyridin-3-yl)pyridin-2(1H)-one hydrochloride (Enantiomer B)], affinity was put at a Ki of 5.3 nM.

In the case of `Cn1c2c(c3ccc(-n4ccc(OCc5ccc(C(F)(F)F)nc5)cc4=O)cc31)C1CCC(C2)N1` (single isomer, unassigned; enantiomer b) [Example 38, 1-(5-Methyl-5,6,7,8,9,10-hexahydro-7,10-iminocyclohept[b]indol-3-yl)-4-((6-(trifluoromethyl)pyridin-3-yl)methoxy)pyridin-2(1H)-one hydrochloride (Enantiomer B)], the Ki stood at 12 nM.

The experiment is the same for the next values; noted with them: membranes from CHO-K1 cells expressing human MCH1 receptor; [3H]-labeled radioligand; Ki from IC50 by Cheng Prusoff; read-out: MCH-1 Ki.
Regarding `Cn1c2c(c3ccc(-n4ccc(-c5ccc(C(F)(F)F)cn5)cc4=O)cc31)C1CCC(C2)N1` (single isomer, unassigned; enantiomer b) [Example 16, 1-(5-Methyl-5,6,7,8,9,10-hexahydro-7,10-iminocyclohept[b]indol-3-yl)-4-(5-(trifluoromethyl)pyridin-2-yl)pyridin-2(1H)-one hydrochloride (Enantiomer B)], the Ki was found to be 14 nM. Take `Cc1ccc(-c2ccn(-c3ccc4c5c(n(C)c4c3)CC3CCC5N3)c(=O)c2)cn1` (single isomer, unassigned; enantiomer b) [Example 35, 1-(5-Methyl-5,6,7,8,9,10-hexahydro-7,10-iminocyclohept[b]indol-3-yl)-4-(6-methylpyridin-3-yl)-pyridin-2(1H)-one hydrochloride (Enantiomer B)]: the inhibitory constant (Ki) came to 59 nM. As to `Cn1c2c(c3ccc(-n4ccc(OCc5ccccc5)cc4=O)cc31)C1CCC(C2)N1` (centres unmarked) [Example 2, 4-(Benzyloxy)-1-(5-methyl-5,6,7,8,9,10-hexahydro-7,10-iminocyclohept[b]indol-3-yl)pyridin-2(1H)-one hydrochloride], the Ki was 10.5 nM.

For `Cn1c2c(c3ccc(-n4ccc(-c5ccc(C(F)(F)F)cn5)cc4=O)cc31)C1CCC(C2)N1` (centres unmarked) [Example 4, 1-(5-Methyl-5,6,7,8,9,10-hexahydro-7,10-iminocyclohept[b]indol-3-yl)-4-(5-(trifluoromethyl)pyridin-2-yl)pyridin-2(1H)-one dihydrochloride], the Ki is 16.1 nM.

Take `Cn1c2c(c3ccc(-n4ccc(-c5ccc(C(F)(F)F)nc5)cc4=O)cc31)C1CCC(C2)N1` (centres unmarked) [Example 5, 1-(5-Methyl-5,6,7,8,9,10-hexahydro-7,10-iminocyclohept[b]indol-3-yl)-4-(6-(trifluoromethyl)pyridin-3-yl)pyridin-2(1H)-one dihydrochloride]: the Ki came out at 6.5 nM. With `Cn1c2c(c3ccc(-n4ccc(OCc5ccc(F)cn5)cc4=O)cc31)C1CCC(C2)N1` (centres unmarked) [Example 6, 4-((5-Fluoropyridin-2-yl)methoxy)-1-(5-methyl-5,6,7,8,9,10-hexahydro-7,10-iminocyclohept[b]indol-3-yl)pyridin-2(1H)-one dihydrochloride], the inhibition constant (Ki) was found to be 13.5 nM. Same read-out and setting: under `Cn1c2c(c3ccc(-n4ccc(-c5cnc(C(F)(F)F)nc5)cc4=O)cc31)C1CCC(C2)N1` (centres unmarked) [Example 7, 1-(5-Methyl-5,6,7,8,9,10-hexahydro-7,10-iminocyclohept[b]indol-3-yl)-4-(2-(trifluoromethyl)pyrimidin-5-yl)pyridin-2(1H)-one hydrochloride] stands 68.1 nM; under `O=c1cc(OCc2ccc(F)cn2)ccn1-c1ccc2c3c([nH]c2c1)CC1CCC3N1` (centres unmarked) [Example 9, 4-((5-Fluoropyridin-2-yl)methoxy)-1-(5,6,7,8,9,10-hexahydro-7,10-iminocyclohept[b]indol-3-yl)pyridin-2(1H)-one dihydrochloride], 25.3 nM. On the same count and under the same terms, with `Cn1c2c(c3ccc(-n4ccc(OCc5ccc(F)cn5)cc4=O)cc31)C1CCCC(C2)N1` (centres unmarked) [Example 11, 4-((5-Fluoropyridin-2-yl)methoxy)-1-(5-methyl-6,7,8,9,10,11-hexahydro-7,11-imino-5H-cyclooct[b]indol-3-yl)pyridin-2(1H)-one dihydrochloride] the figure was 21.3 nM; with `Cn1c2c(c3ccc(-n4ccc(OCc5ccccc5)cc4=O)cc31)C1CCCC(C2)N1` (centres unmarked) [Example 12, 4-(Benzyloxy)-1-(5-methyl-6,7,8,9,10,11-hexahydro-7,11-imino-5H-cyclooct[b]indol-3-yl)pyridin-2(1H)-one hydrochloride], 9.3 nM; with `Cn1c2c(c3ccc(-n4ncc(OCc5ccc(F)cn5)cc4=O)cc31)C1CCCC(C2)N1` (centres unmarked) [Example 17, 5-((5-Fluoropyridin-2-yl)methoxy)-2-(5-methyl-6,7,8,9,10,11-hexahydro-7,11-imino-5H-cyclooct[b]indol-3-yl)pyridazin-3(2H)-one hydrochloride], 28 nM.

For `CC(C)N1C2CCC1c1c(n(C)c3cc(-n4ccc(OCc5ccccc5)cc4=O)ccc13)C2` (centres unmarked) [Example 28, 4-(Benzyloxy)-1-(11-isopropyl-5-methyl-5,6,7,8,9,10-hexahydro-7,10-iminocyclohept[b]indol-3-yl)pyridin-2(1H)-one hydrochloride], the Ki came out at 12 nM.
